Laboratory results as given in ChEMBL document CHEMBL1145347, “A gatekeeper residue for inhibitor sensitization of protein tyrosine phosphatases” (Bioorg Med Chem Lett, 2006).

Legend:
[1] = target: T1, Tyrosine-protein phosphatase non-receptor type 2 (Homo sapiens, UniProt P17706); assay: Inhibition of TCPTP
T1 sequence (P17706 whole entry): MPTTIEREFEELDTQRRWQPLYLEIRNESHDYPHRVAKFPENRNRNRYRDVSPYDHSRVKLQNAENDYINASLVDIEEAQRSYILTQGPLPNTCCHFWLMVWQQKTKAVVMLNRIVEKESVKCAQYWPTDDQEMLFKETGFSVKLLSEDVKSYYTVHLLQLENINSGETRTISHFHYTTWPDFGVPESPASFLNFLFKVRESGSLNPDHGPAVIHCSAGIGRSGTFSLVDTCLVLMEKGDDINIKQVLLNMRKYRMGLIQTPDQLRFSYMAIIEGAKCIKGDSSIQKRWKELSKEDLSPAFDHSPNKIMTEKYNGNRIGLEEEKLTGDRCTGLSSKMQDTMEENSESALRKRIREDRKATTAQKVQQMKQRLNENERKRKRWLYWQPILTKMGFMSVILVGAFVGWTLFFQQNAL

[2] = target: Tyrosine-protein phosphatase non-receptor type 1 (Homo sapiens, UniProt P18031, I219A); assay: Inhibition of PTP1B I219A mutant
[3] = target: T2, Tyrosine-protein phosphatase non-receptor type 1 (Homo sapiens, UniProt P18031); assay: Inhibition of wild type PTP1B
T2 sequence (P18031 whole entry): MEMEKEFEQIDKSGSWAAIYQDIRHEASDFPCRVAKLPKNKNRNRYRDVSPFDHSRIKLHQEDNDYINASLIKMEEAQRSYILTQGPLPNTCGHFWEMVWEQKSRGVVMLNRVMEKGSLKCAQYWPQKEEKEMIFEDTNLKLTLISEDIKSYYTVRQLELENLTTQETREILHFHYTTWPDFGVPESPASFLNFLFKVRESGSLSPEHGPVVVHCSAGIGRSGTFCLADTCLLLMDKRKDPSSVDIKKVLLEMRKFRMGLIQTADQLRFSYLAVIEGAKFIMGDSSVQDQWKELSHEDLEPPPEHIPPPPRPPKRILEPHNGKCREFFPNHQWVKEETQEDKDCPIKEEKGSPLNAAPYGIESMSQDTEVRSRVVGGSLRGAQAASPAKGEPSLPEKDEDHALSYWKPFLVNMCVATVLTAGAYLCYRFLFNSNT

[4] = target: Tyrosine-protein phosphatase non-receptor type 2 (Homo sapiens, UniProt P17706, I220A); assay: Inhibition of TCPTP I220A mutant
[5] = target: T3, Tyrosine-protein phosphatase non-receptor type 1 (Homo sapiens) (UniProt P18031); assay: Selectivity for PTP1B V49A over wild type PTP1B
T3 sequence (whole entry): T2 sequence (P18031 whole entry)

[6] = target: Tyrosine-protein phosphatase non-receptor type 1 (Homo sapiens, UniProt P18031, V49A); assay: Inhibition of PTP1B V49A mutant
[7] = tested on: Tyrosine-protein phosphatase non-receptor type 1 (Homo sapiens), P18031 [UNDEFINED MUTATION]; assay: Selectivity for PTP1B I219A over wild type PTP1B

Chain of Tyrosine-protein phosphatase non-receptor type 1 (Homo sapiens, UniProt P18031, I219A) (P18031 whole entry I219A): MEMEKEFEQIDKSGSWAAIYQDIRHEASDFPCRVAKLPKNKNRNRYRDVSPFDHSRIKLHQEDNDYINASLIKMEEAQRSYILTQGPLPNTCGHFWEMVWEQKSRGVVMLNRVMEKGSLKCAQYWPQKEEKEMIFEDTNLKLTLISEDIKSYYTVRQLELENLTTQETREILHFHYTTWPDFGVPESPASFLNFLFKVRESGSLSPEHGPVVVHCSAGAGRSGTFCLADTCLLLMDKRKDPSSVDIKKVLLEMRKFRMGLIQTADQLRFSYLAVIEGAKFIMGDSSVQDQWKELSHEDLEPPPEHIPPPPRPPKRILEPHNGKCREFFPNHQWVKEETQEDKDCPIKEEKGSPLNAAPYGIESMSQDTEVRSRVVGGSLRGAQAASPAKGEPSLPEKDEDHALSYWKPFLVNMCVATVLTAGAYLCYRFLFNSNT
Chain of Tyrosine-protein phosphatase non-receptor type 1 (Homo sapiens, UniProt P18031, V49A) (P18031 whole entry V49A): as the sequence (P18031 whole entry I219A) above, with V49A, A219I counted along it
Chain of Tyrosine-protein phosphatase non-receptor type 2 (Homo sapiens, UniProt P17706, I220A) (P17706 whole entry I220A): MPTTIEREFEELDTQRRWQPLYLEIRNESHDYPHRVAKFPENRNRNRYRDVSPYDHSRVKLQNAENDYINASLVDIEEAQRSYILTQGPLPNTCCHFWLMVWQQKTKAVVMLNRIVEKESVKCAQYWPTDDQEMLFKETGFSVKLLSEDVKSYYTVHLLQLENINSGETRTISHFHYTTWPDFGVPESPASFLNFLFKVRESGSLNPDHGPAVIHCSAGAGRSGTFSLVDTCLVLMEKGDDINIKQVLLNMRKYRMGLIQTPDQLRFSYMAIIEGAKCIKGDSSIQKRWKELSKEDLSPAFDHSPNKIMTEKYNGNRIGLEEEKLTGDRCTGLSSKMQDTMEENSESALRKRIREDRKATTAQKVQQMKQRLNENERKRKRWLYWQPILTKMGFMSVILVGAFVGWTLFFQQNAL

| Ki [1] [µM] | Ki [2] [µM] | Ki [3] [µM] | Ki [4] [nM] | Selectivity ratio [5] | Ki [6] [µM] | Selectivity ratio [7] | SMILES |
| --- | --- | --- | --- | --- | --- | --- | --- |
| 10 | 0.23 | 6 | 710 |  |  |  | O=C(O)C(=O)Nc1sc2c(c1C(=O)O)CCNC2 |
|  | 10 | > 300 |  | > 10 | 27 | > 30 | CC1(C)Cc2c(sc(NC(=O)C(=O)O)c2C(=O)O)C(C)(C)C1 |
